# Key:
# [1] = target: full-length human recombinant BTK (Homo sapiens (Human), UniProt Q06187); assay: Inhibition of Btk enzymatic activity (biochemical enzyme assay, Caliper); conditions: 30° C., 60 minutes
# Procedure: The inhibitory activity of the present compounds against Btk was assessed in a biochemical enzyme assay. Assay plates in 384 well format were prepared with 8-point serial dilutions for the test compounds on a Thermo CatX workstation equipped with a Innovadyne Nanodrop Express. The assay plates were prepared by addition of 50 nl per well of compound solution in 90% DMSO. The kinase reactions were started by stepwise addition of 4.5 μl per well of peptide/ATP-solution (4 μM FITC-Ahx-[…]-NH2, 164 μM ATP) in kinase buffer (50 mM HEPES, pH 7.5, 1 mM DTT, 0.02% Tween20, 0.02% BSA, 0.6% DMSO, 10 mM beta-glycerophosphate, and 10 μM sodium orthovanadate, 18 mM MgCl2, 1 mM MnCl2) and 4.5 μl per well of enzyme solution (6.4 nM full-length human recombinant BTK) in kinase buffer. Kinase reactions were incubated at 30° C. for 60 minutes and subsequently terminated by addition of 16 μl per well of stop solution (100 mM HEPES pH 7.5, 5% DMSO, 0.1% Caliper coating reagent, 10 mM EDTA, and 0.015% Brij35). Kinase reactions were analyzed on a Caliper LC3000 workstation by separating phosphorylated and unphosphorylated peptides and kinase activities were calculated from the amounts of newly formed phospho-peptide. Inhibition data were calculated by comparison to control reactions without enzyme (100% inhibition) and without inhibitors (0% inhibition). The concentration of inhibitor required for 50% inhibition (IC50) was calculated from the inhibition in response to inhibitor concentrations.
# Btk [2] = target: Btk (Rattus norvegicus, UniProt Q5S255); assay: Inhibition of Btk activity in blood: in vitro B cell activation assay (CD86) in rat whole blood; format: cell-based; conditions: Lewis rat whole blood diluted to 50%, anti-rat IgM + IL-4, CD86 on CD45RA positive B cells, 24 hours
# Chain of Btk (Rattus norvegicus, UniProt Q5S255) (Q5S255 1-660): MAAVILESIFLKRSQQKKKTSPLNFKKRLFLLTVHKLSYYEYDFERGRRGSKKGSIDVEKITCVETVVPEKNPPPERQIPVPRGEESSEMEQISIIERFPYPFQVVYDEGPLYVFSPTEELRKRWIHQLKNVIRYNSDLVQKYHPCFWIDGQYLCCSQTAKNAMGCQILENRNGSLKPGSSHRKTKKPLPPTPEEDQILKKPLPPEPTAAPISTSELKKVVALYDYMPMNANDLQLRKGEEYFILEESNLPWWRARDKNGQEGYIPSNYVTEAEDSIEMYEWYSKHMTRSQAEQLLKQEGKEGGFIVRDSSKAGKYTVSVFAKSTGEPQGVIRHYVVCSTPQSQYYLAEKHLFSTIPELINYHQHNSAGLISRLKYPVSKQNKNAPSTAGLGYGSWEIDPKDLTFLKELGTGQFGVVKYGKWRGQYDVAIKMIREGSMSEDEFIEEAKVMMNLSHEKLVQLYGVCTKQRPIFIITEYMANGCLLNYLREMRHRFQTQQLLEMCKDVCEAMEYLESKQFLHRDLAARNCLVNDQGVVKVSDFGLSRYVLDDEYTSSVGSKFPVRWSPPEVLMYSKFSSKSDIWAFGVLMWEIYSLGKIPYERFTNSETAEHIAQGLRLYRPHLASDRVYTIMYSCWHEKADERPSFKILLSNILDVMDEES
# Procedure: Alternatively, the inhibitory activity of the present compounds in blood was assessed in the following in vitro B cell activation assay. Whole blood was collected from the abdominal aorta of anaesthetized adult male Lewis rats and was anticoagulated with 100 U/ml sodium heparin. Blood was then diluted to 50% with high glucose DMEM (Amimed) supplemented with 100 U/ml penicillin, […] streptomycin, 2 mM L-glutamin, 50 mg/ml dextran 40 and 5% FCS (Fetaclone I, Gibco). Then, 190 μl prediluted blood was mixed in 96 well U-bottomed microtiter plates (Nunc) with 10 μl of serial dilutions of test compounds in DMSO. Cultures were incubated at 37° C., 5% CO2 for 1 hour, then 30 μl of rat IL-4 (Beckton-Dickinson, final concentration 5 ng/ml) and goat anti-rat IgM (Serotec, final concentration 15 ug/ml) were added and the cultures were incubated for 24 hours. Activation of B cells was measured by flow cytometry after staining for the B cell subset with PE-Cy5-labeled anti-ratCD45RA (Beckton-Dickinson) and for the activation marker CD86 (PE-labeled anti-rat CD86 (Beckton-Dickinson). All staining procedures were performed at RT for 30 min in the dark in 96-deep well V-bottomed microtiter plates (Corning) with BD Lysing Solution (Beckton-Dickinson). Cytometric data was acquired on a FACScalibur flow cytometer (BD Biosciences) and the subpopulation of lymphocytes were gated according to size and granularity and further analyzed for expression of CD45RA and the activation markers. Data for the inhibition of B cell activation were calculated from the percentage of cells positively stained for activation markers within the CD45RA positive population. Inhibition data were calculated by comparison to control cultures without anti-IgM and IL-4 (100% inhibition) and without inhibitors (0% inhibition). The concentration of inhibitor required for 50% inhibition (IC50) was calculated from the inhibition in response to inhibitor concentrations.
# Btk [3] = target: Btk (Homo sapiens (Human), UniProt Q06187); assay: Inhibition of cellular Btk activity: Btk-dependent FcG receptor-induced IL-8 secretion in differentiated THP1 cells; format: cell-based; conditions: IgG-stimulated IL-8 secretion, 24 hours
# Chain of Btk (Homo sapiens (Human), UniProt Q06187) (Q06187 whole entry): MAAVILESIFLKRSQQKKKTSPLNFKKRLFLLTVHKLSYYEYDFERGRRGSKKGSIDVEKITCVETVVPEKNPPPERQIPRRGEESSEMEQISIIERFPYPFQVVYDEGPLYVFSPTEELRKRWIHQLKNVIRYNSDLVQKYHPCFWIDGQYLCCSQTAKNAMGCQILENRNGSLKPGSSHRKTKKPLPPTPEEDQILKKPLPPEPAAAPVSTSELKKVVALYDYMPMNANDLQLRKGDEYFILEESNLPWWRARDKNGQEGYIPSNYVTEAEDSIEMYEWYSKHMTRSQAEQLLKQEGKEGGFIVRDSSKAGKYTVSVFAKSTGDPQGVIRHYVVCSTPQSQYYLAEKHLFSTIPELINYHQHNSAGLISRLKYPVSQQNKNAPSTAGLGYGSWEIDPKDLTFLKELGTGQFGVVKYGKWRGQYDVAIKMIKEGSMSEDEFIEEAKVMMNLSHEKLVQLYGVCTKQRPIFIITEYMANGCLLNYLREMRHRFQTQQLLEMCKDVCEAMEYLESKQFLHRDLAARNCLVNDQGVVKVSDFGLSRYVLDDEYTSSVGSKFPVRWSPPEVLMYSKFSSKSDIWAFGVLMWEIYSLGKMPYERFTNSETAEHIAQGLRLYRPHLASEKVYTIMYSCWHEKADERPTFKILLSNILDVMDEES
# Procedure: Alternatively, the present compounds might also be assessed for their capacity to inhibit Btk-dependent FcG receptor-induced IL-8 secretion in human cells. The human myeloid leukemia THP1 cell line (ATCC TIB202) was grown in RPMI 1640 medium supplemented with 10% FCS and 15 nM 1, 25-dihydroxy Vitamin D3 during 4 days before use to induced myeloid differentiation. A sufficient number of tissue-culture grade 384-well plates was coated with human IgG of unknown specificity by incubating overnight at 4° C. with 40 μl/well of a 50 μg/ml IgG solution in PBS. On the day of the experiment, plates were washed 5 times with 80 μl water on a Molecular Devices Aquamax DW4 plate washer. Solutions of the test compounds in 90% DMSO were added to each well on a Hamilton Microlab Star liquid handling station to 40 μl/well tissue culture medium and the total DMSO concentration was adjusted to 0.1%. Differentiated THP1 cells were then added in 40 μl/well to reach a final density of 5'000 cells/well in 80 μl culture medium. After 24 hours, IL-8 secretion was measured in the supernatant by the IL-8 HTRF assay following the protocol of the vendor (CisBio international). Inhibition data were calculated by comparison to control cultures without IgG stimulus enzyme (100% inhibition) and without inhibitors (0% inhibition). The concentration of inhibitor required for 50% inhibition (IC50) was calculated from the inhibition in response to inhibitor concentrations.
# Chain of full-length human recombinant BTK (Q06187 whole entry): as above
Compound,IC50 [1],IC50 (Btk [2]),IC50 (Btk [3])
"Cc1c(NC(=O)c2ccc3c(c2)OCC3(C)C)cc(F)cc1-c1ncnc2[nH]c(C3=CCN(C(=O)N(C)C)CC3)cc12 [Example 2, 4-(4-{3-[(3,3-Dimethyl-2,3-dihydro-benzofuran-6-carbonyl)-amino]-5-fluoro-2-methyl-phenyl}-7H-pyrrolo[2′3-d]pyrimidin-6-yl)-3,6-dihydro-2H-pyridine-1-carboxylic acid dimethylamide]",4 nM,72 nM,–
"Cc1c(NC(=O)c2cc3c(s2)CCC(C)C3)cc(F)cc1-c1ncnc2[nH]c(C3=CCN(C(=O)N(C)C)CC3)cc12 (centres unmarked) [Example 3, 4-(4-{5-Fluoro-2-methyl-3-[(5-methyl-4,5,6,7-tetrahydro-benzo[b]thiophene-2-carbonyl)-amino]-phenyl}-7H-pyrrolo[2′3-d]pyrimidin-6-yl)-3,6-dihydro-2H-pyridine-1-carboxylic acid dimethylamide]",5 nM,–,27 nM
"Cc1c(NC(=O)c2ccc(C(C)(C)CO)cc2)cc(F)cc1-c1ncnc2[nH]c(C3=CCN(C(=O)N(C)C)CC3)cc12 [Example 6, 4-(4-{5-Fluoro-3-[4-(2-hydroxy-1,1-dimethyl-ethyl)-benzoylamino]-2-methyl-phenyl}-7H-pyrrolo[2,3-d]pyrimidin-6-yl)-3,6-dihydro-2H-pyridine-1-carboxylic acid dimethylamide]",2 nM,112 nM,–
"CN(C)C(=O)N1CC=C(c2cc3c(-c4cccc(NC(=O)c5ccc(C(C)(C)O)cc5F)c4CO)ncnc3[nH]2)CC1 [Example 16, 4-(4-{3-[2-Fluoro-4-(1-hydroxy-1-methyl-ethyl)-benzoylamino]-2-hydroxymethyl-phenyl}-7H-pyrrolo[2,3-d]pyrimidin-6-yl)-3,6-dihydro-2H-pyridine-1-carboxylic acid dimethylamide]",2 nM,–,69 nM
"CN(C)C(=O)N1CC=C(c2cc3c(-c4cccc(NC(=O)c5ccc(C6CC6)cc5)c4CO)ncnc3[nH]2)CC1 [Example 17, 4-{4-[3-(4-Cyclopropyl-benzoylamino)-2-hydroxymethyl-phenyl]-7H-pyrrolo[2,3-d]pyrimidin-6-yl}-3,6-dihydro-2H-pyridine-1-carboxylic acid dimethylamide]",1 nM,100 nM,–
"Cc1c(NC(=O)c2ccc(C3CC3)cc2)cc(F)cc1-c1ncnc2[nH]c(C3=CCN(C(=O)CO)CC3)cc12 [Example 32, 4-Cyclopropyl-N-(5-fluoro-3-{6-[1-(2-hydroxy-actyl)-1,2,3,6-tetrahydro-pyridin-4-yl]-7H-pyrrolo[2,3-d]pyrimidin-4-yl}-2-methyl-phenyl)benzamide]",7 nM,414 nM,–
"CC(C)(C)c1ccc(C(=O)Nc2cccc(-c3ncnc4[nH]c(C5=CCN(C(=O)CF)CC5)cc34)c2CO)cc1 [Example 38, 4-tert-Butyl-N-(3-{6-[1-(2 fluoro-acetyl)-1,2,3,6-tetrahydro-pyridin-4-yl]-7H-pyrrolo[2,3-d]pyrimidin-4-yl}-2-hydroxymethyl-phenyl)-benzamide]",27 nM,–,20 nM
"Cc1c(NC(=O)N2CC(OC(C)C)C2)cc(F)cc1-c1ncnc2[nH]c(C3=CCN(C(=O)N(C)C)CC3)cc12 [Example 58, 4-(4-{5-Fluoro-3-[(3-isopropoxy-azetidine-1-carbonyl)-amino]-2-methyl-phenyl}-7H-pyrrolo[2,3-d]pyrimidin-6-yl)-3,6-dihydro-2H-pyridine-1-carboxylic acid dimethylamide]",16 nM,179 nM,–
"CN(C)C(=O)N1CC=C(c2cc3c(-c4ccc(F)c(NC(=O)N5CC(OC(C)(C)C)C5)c4)ncnc3[nH]2)CC1 [Example 62, 4-(4-{3-[(3-tert-Butoxy-azetidine-1-carbonyl)-amino]-4-fluoro-phenyl}-7H-pyrrolo[2,3-d]pyrimidin-6-yl)-3,6-dihydro-2H-pyridine-1-carboxylic acid dimethylamide]",2 nM,–,71 nM
"Cc1c(-c2ncnc3[nH]c(C4=CCN(C(=O)N(C)C)CC4)cc23)ccc(F)c1NC(=O)N1CC(OC(C)(C)C)C1 [Example 63, 4-(4-{3-[(3-tert-Butoxy-azetidine-1-carbonyl)-amino]-4-fluoro-2-methyl-phenyl}-7H-pyrrolo[2,3-d]pyrimidin-6-yl)-3,6-dihydro-2H-pyridine-1-carboxylic acid dimethylamide]",2 nM,–,–
"Cc1c(NC(=O)c2ccc(C(C)(C)C)cc2)cccc1-c1ncnc2[nH]c(C3=CCOCC3)cc12 [Example 64, 4-tert-Butyl-N-{3-[6-(3,6-dihydro-2H-pyran-4-yl)-7H-pyrrolo[2,3-d]pyrimidin-4-yl]-2-methyl-phenyl}-benzamide]",15 nM,–,–
"Cc1c(NC(=O)c2ccc(C(C)(C)C)cc2)cccc1-c1ncnc2[nH]c(C3=CCC4(CC3)OCCO4)cc12 [Example 65, 4-tert-Butyl-N-{3-[6-(1,4-dioxa-spiro[4.5]dec-7-en-8-yl)-7H-pyrrolo[2,3-d]pyrimidin-4-yl]-2-methyl-phenyl}-benzamide]",9 nM,–,–
"Cc1c(NC(=O)c2ccc(C(C)(C)C)cc2)cccc1-c1ncnc2[nH]c(C3=CCC(O)CC3)cc12 (centres unmarked) [Example 66, 4-tert-Butyl-N-{3-[6 (4 hydroxy-cyclohex-1-enyl)-7H-pyrrolo[2,3-d]pyrimidin-4-yl]-2-methyl-phenyl}-benzamide]",12 nM,–,–
"Cc1c(NC(=O)c2ccc(C(C)(C)C)cc2)cccc1-c1ncnc2[nH]c(C3=CCC(N(C)C)CC3)cc12 (centres unmarked) [Example 67, 4-tert-Butyl-N-{3-[6 (4 dimethylamino-cyclohex-1-enyl)-7H-pyrrolo[2,3-d]pyrimidin-4-yl]-2-methyl-phenyl}-benzamide]",8 nM,–,–

# Reference: patent US9233111B2, “Pyrrolo pyrimidine derivatives” (NOVARTIS AG, priority 2011, dated 2016)
